Reference: ChEMBL document CHEMBL5727426, “Tetrahydroisoquinoline derived PRMT5-inhibitors” (2019)

Assay: Revised Biochemical Assay: Compounds of the invention may be tested for in vitro activity in the following assay: A histone H4 derived peptide is used as substrate (amino acid sequence: […]N H2). Full-length PRMT5 enzyme (NCBI Reference sequence NP_006100.2) was co-expressed with His6-MEP50 in insect cells and purified via Nickel immobilized metal affinity and gel filtration chromatography (the enzyme).The 6 μL reactions are run in Greiner brand black 384-well low volume assay plates. All reactions contained assay buffer (phosphate buffered saline, 0.01% (v/v) Tween-20, 0.01% (w/v) albumin from chicken egg white, 1 mM Dithiothreitol, 1 μM peptide substrate, 1 μM S-Adenosyl methionine, and 15 ng/reaction enzyme, with the enzyme being omitted from negative control reactions. Compounds were added in a volume of 100 nL from dilution series prepared in DMSO, positive and negative control reactions receiving the same volume DMSO without compound. The plates were sealed with adhesive seals and incubated for 4 hours at 37 degree Celsius. Reaction progress was measured using the Transcreener EPIGEN methyltransferase assay (BellBrook Labs, Madison, Wis.) as recommended by the manufacturer. To each reaction 2 μL detection mix were added, containing coupling enzymes, fluorescence polarisation tracer, and AMP antibody. Plates were incubated for 90 minutes before being read on a PerkinElmer EnVision plate reader in fluorescence polarisation mode.

| SMILES | IC50 |
| --- | --- |
| COC(=O)N1[C@@H]2CC[C@H]1CC(Oc1cc(C(=O)NC[C@@H](O)[C@@H]3Cc4ccccc4CN3)ccn1)C2 (stereo partly drawn) | 38 nM |
| Cc1ccc(C(=O)NC[C@@H](O)[C@@H]2Cc3ccccc3CN2)cn1 | 4660 nM |
| O=C(NC[C@@H](O)[C@@H]1Cc2ccccc2CN1)c1ccc2[nH]ncc2c1 | 2740 nM |
